# Assay results: patent US10173982B2, “Picolinamides as fungicides” (Dow AgroSciences LLC, priority 2016, dated 2019)
# Where two headings read alike, the source gives them in different places.
# How the values were obtained:
# Format in all cases: in vivo
# Zymoseptoria tritici = test: Fungicidal activity: leaf blotch of wheat (SEPTTR), percent disease control on wheat seedlings; details: Zymoseptoria tritici, LV (low volume) activity at 121.5 g/H
# Protocol: Technical grades of materials were dissolved in acetone, which were then mixed with nine volumes of water containing 110 ppm Triton X-100. The fungicide solutions were applied onto wheat seedlings using an automated booth sprayer to run-off. All sprayed plants were allowed to air dry prior to further handling. All fungicides were evaluated using the aforementioned method for their activity vs. all target diseases, unless stated otherwise. Wheat leaf blotch and brown rust activity were also evaluated using track spray applications, in which case the fungicides were formulated as EC formulations, containing 0.1% Trycol 5941 in the spray solutions. Wheat plants (variety Yuma) were grown from seed in a greenhouse in 50% mineral soil/50% soil-less Metro mix until the first leaf was fully emerged, with 7-10 seedlings per pot. These plants were inoculated with an aqueous spore suspension of Zymoseptoria tritici either prior to or after fungicide treatments. After inoculation the plants were kept in 100% relative humidity (one day in a dark dew chamber followed by two to three days in a lighted dew chamber at 20° C.) to permit spores to germinate and infect the leaf. The plants were then transferred to a greenhouse set at 20° C. for disease to develop. When disease symptoms were fully expressed on the 1st leaves of untreated plants, infection levels were assessed on a scale of 0 to 100 percent disease severity. Percent disease control was calculated using the ratio of disease severity on treated plants relative to untreated plants.
# Puccinia triticina = test: Fungicidal activity: wheat brown rust (PUCCRT), percent disease control on wheat seedlings; details: Puccinia triticina, LV (low volume) activity at 121.5 g/H
# Protocol: Technical grades of materials were dissolved in acetone, which were then mixed with nine volumes of water containing 110 ppm Triton X-100. The fungicide solutions were applied onto wheat seedlings using an automated booth sprayer to run-off. All sprayed plants were allowed to air dry prior to further handling. All fungicides were evaluated using the aforementioned method for their activity vs. all target diseases, unless stated otherwise. Wheat leaf blotch and brown rust activity were also evaluated using track spray applications, in which case the fungicides were formulated as EC formulations, containing 0.1% Trycol 5941 in the spray solutions. Wheat plants (variety Yuma) were grown from seed in a greenhouse in 50% mineral soil/50% soil-less Metro mix until the first leaf was fully emerged, with 7-10 seedlings per pot. These plants were inoculated with an aqueous spore suspension of Puccinia triticina either prior to or after fungicide treatments. After inoculation the plants were kept in a dark dew room at 22° C. with 100% relative humidity overnight to permit spores to germinate and infect the leaf. The plants were then transferred to a greenhouse set at 24° C. for disease to develop. Fungicide formulation, application and disease assessment followed the procedures as described in the Example A. Results of the evaluations are shown below in Table 4.
# Phakopsora pachyrhizi = test: Fungicidal activity: Asian soybean rust (PHAKPA), disease control on soybean seedlings; details: High volume at 25 ppm
# Protocol: Technical grades of materials were dissolved in acetone, which were then mixed with nine volumes of water containing 0.011% Tween 20. The fungicide solutions were applied onto soybean seedlings using an automated booth sprayer to run-off. All sprayed plants were allowed to air dry prior to further handling.
# Soybean plants (variety Williams 82) were grown in soil-less Metro mix, with one plant per pot. Two weeks old seedlings were used for testing. Plants were inoculated either 3 days prior to or 1 day after fungicide treatments. Plants were incubated for 24 h in a dark dew room at 22° C. and 100% relative humidity then transferred to a growth room at 23° C. for disease to develop. Disease severity was assessed on the sprayed leaves.
# [1] = 24 h, 1 Day Protectant, read-out: SEPTTR 1DP disease control rating
# [2] = 72 h, 3 Day Curative, read-out: SEPTTR 3DC disease control rating
# [3] = 24 h, 1 Day Protectant, read-out: PUCCRT 1DP disease control rating
# [4] = 72 h, 3 Day Curative, read-out: PUCCRT 3DC disease control rating
# [5] = 24 h, 1 Day Protectant, read-out: PHAKPA 1DP disease control rating
# [6] = 72 h, 3 Day Curative, read-out: PHAKPA 3DC disease control rating
SMILES,pest or weed control at 121.5 g/ha (Zymoseptoria tritici; [1]) [%],pest or weed control at 121.5 g/ha (Zymoseptoria tritici; [2]) [%],pest or weed control at 121.5 g/ha (Puccinia triticina; [3]) [%],pest or weed control at 121.5 g/ha (Puccinia triticina; [4]) [%],pest or weed control at 25 ppm (Phakopsora pachyrhizi; [5]) [%],pest or weed control at 25 ppm (Phakopsora pachyrhizi; [6]) [%]
COc1ccnc(C(=O)N[C@@H](C)C(=O)O[C@@H](C)[C@@H](c2ccccc2)[S+]([O-])c2ccc(F)cc2)c1OC(C)=O (stereo partly shown) [Compound 62],≤ 80,≤ 80,≤ 0,≤ 0,≤ 0,≤ 0
COc1ccnc(C(=O)N[C@@H](C)C(=O)O[C@@H](C)[C@@H](c2ccccc2)S(=O)(=O)c2ccc(F)cc2)c1OC(C)=O [Compound 64],≤ 80,≤ 80,≤ 80,≤ 0,≤ 0,≤ 80
COc1ccnc(C(=O)N[C@@H](C)C(=O)O[C@@H](C)[C@H](Sc2cccc(Cl)c2)c2ccccc2)c1OC(C)=O [Compound 65],> 80,≤ 0,> 80,≤ 80,≤ 80,≤ 80
COc1ccnc(C(=O)N[C@@H](C)C(=O)O[C@@H](C)[C@H](Sc2ccc(C)cc2)c2ccccc2)c1OC(C)=O [Compound 66],> 80,≤ 80,≤ 80,≤ 80,≤ 80,≤ 80
COc1ccnc(C(=O)N[C@@H](C)C(=O)O[C@@H](C)[C@H](Sc2ccc(C)cc2C)c2ccccc2)c1OC(C)=O [Compound 67],> 80,> 80,> 80,≤ 80,≤ 80,≤ 0
COc1ccnc(C(=O)N[C@@H](C)C(=O)O[C@@H](C)[C@H](SCc2ccccc2)c2ccccc2)c1OC(C)=O [Compound 68],> 80,≤ 80,> 80,> 80,> 80,≤ 80
COc1ccnc(C(=O)N[C@@H](C)C(=O)O[C@@H](C)[C@H](SCC(C)C)c2ccccc2)c1OC(C)=O [Compound 69],≤ 80,≤ 0,> 80,≤ 80,> 80,≤ 80
COc1ccnc(C(=O)N[C@@H](C)C(=O)O[C@@H](C)[C@H](SC(C)C)c2ccccc2)c1OC(C)=O [Compound 70],≤ 80,> 80,> 80,≤ 80,> 80,≤ 80
COc1ccnc(C(=O)N[C@@H](C)C(=O)O[C@@H](C)[C@H](Sc2ccc(C(F)(F)F)cn2)c2ccccc2)c1OC(C)=O [Compound 71],≤ 80,≤ 80,≤ 0,≤ 80,≤ 80,≤ 80
COc1ccnc(C(=O)N[C@@H](C)C(=O)O[C@@H](C)[C@H](Sc2ccc(F)cc2C)c2ccc(F)cc2C)c1OC(C)=O [Compound 76],> 80,> 80,≤ 80,≤ 0,≤ 80,≤ 80
COc1ccnc(C(=S)N[C@@H](C)C(=O)O[C@@H](C)[C@H](Sc2ccc(F)cc2C)c2ccccc2)c1OC(C)=O [Compound 83],≤ 80,≤ 0,≤ 80,≤ 0,,
